According to patent US12077503B2, “Substituted cyclic amides and their use as herbicides” (FMC CORPORATION, priority 2015, dated 2024):

Tests used:
Assay type in all cases: in vivo
corn (Zea mays) = assay: Test A postemergence; details: Zea mays, post-emergence, 240 h, postemergence, read-out: Corn plant response rating; for plant injury at 125 g/ha: 125 g ai/ha, visual injury on 0 to 100 scale (0 no effect, 100 complete control), approx. 10 d; for plant injury at 500 g/ha: 500 g ai/ha, 0 to 100 scale, 0 is no effect, 100 is complete control
Procedure, shortened: (§1)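 Seeded soil received test chemicals as a preemergence directed spray, and seedlings at one to two leaves, 2–10 cm tall, received them postemergence, in a non-phytotoxic, surfactant-containing solvent mixture. Pots were held in a greenhouse for approximately 10 d, then rated for injury from 0, no effect, to 100, complete control.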

[1] = system: wheat (Triticum aestivum); assay: Test A postemergence; details: Triticum aestivum, post-emergence, 240 h, postemergence, read-out: Wheat plant response rating; for plant injury at 125 g/ha: 125 g ai/ha, visual injury on 0 to 100 scale (0 no effect, 100 complete control), approx. 10 d; for plant injury at 500 g/ha: 500 g ai/ha, 0 to 100 scale, 0 is no effect, 100 is complete control
Procedure, shortened: as §1

[2] = system: ryegrass, Italian (Italian ryegrass, Lolium multiflorum); assay: Test A postemergence; details: Lolium multiflorum, post-emergence, 240 h, postemergence, read-out: Ryegrass, Italian plant response rating; for pest or weed control at 125 g/ha: 125 g ai/ha, visual injury on 0 to 100 scale (0 no effect, 100 complete control), approx. 10 d; for pest or weed control at 500 g/ha: 500 g ai/ha, 0 to 100 scale, 0 is no effect, 100 is complete control
Procedure, shortened: as §1

[3] = system: ragweed (common ragweed, Ambrosia elatior); assay: Test A postemergence; details: Ambrosia artemisiifolia, post-emergence, 240 h, postemergence, read-out: Ragweed plant response rating; for pest or weed control at 125 g/ha: 125 g ai/ha, visual injury on 0 to 100 scale (0 no effect, 100 complete control), approx. 10 d; for pest or weed control at 500 g/ha: 500 g ai/ha, 0 to 100 scale, 0 is no effect, 100 is complete control
Procedure, shortened: as §1

[4] = system: Galium (catchweed bedstraw, Galium aparine); assay: Test A postemergence; details: Galium, post-emergence, 240 h, postemergence, read-out: Galium plant response rating; for pest or weed control at 125 g/ha: 125 g ai/ha, visual injury on 0 to 100 scale (0 no effect, 100 complete control), approx. 10 d; for pest or weed control at 500 g/ha: 500 g ai/ha, 0 to 100 scale, 0 is no effect, 100 is complete control
Procedure, shortened: as §1

[5] = system: giant foxtail (Setaria faberii); assay: Test A postemergence; details: Setaria faberi, post-emergence, 240 h, postemergence, read-out: Foxtail, Giant plant response rating; for pest or weed control at 125 g/ha: 125 g ai/ha, visual injury on 0 to 100 scale (0 no effect, 100 complete control), approx. 10 d; for pest or weed control at 500 g/ha: 500 g ai/ha, 0 to 100 scale, 0 is no effect, 100 is complete control
Procedure, shortened: as §1

Kochia (Kochia scoparia) [6] = assay: Test A postemergence; details: Bassia scoparia, post-emergence, 240 h, postemergence, read-out: Kochia plant response rating; for pest or weed control at 125 g/ha: 125 g ai/ha, visual injury on 0 to 100 scale (0 no effect, 100 complete control), approx. 10 d; for pest or weed control at 500 g/ha: 500 g ai/ha, 0 to 100 scale, 0 is no effect, 100 is complete control
Procedure, shortened: as §1

[7] = system: blackgrass (Alopecurus myosuroides); assay: Test A postemergence; details: Alopecurus myosuroides, post-emergence, 240 h, postemergence, read-out: Blackgrass plant response rating; for pest or weed control at 125 g/ha: 125 g ai/ha, visual injury on 0 to 100 scale (0 no effect, 100 complete control), approx. 10 d; for pest or weed control at 500 g/ha: 500 g ai/ha, 0 to 100 scale, 0 is no effect, 100 is complete control
Procedure, shortened: as §1

[8] = system: barnyardgrass (Echinochloa crus-galli); assay: Test A postemergence; details: Echinochloa crus-galli, post-emergence, 240 h, postemergence, read-out: Barnyardgrass plant response rating; for pest or weed control at 125 g/ha: 125 g ai/ha, visual injury on 0 to 100 scale (0 no effect, 100 complete control), approx. 10 d; for pest or weed control at 500 g/ha: 500 g ai/ha, 0 to 100 scale, 0 is no effect, 100 is complete control
Procedure, shortened: as §1

[9] = system: pigweed (Amaranthus retroflexus); assay: Test A postemergence; details: Amaranthus retroflexus, post-emergence, 240 h, postemergence, read-out: Pigweed plant response rating; for pest or weed control at 125 g/ha: 125 g ai/ha, visual injury on 0 to 100 scale (0 no effect, 100 complete control), approx. 10 d; for pest or weed control at 500 g/ha: 500 g ai/ha, 0 to 100 scale, 0 is no effect, 100 is complete control
Procedure, shortened: as §1

[10] = system: ryegrass, Italian (Italian ryegrass, Lolium multiflorum); assay: Test A preemergence; details: Lolium multiflorum, pre-emergence, 240 h, preemergence, 0 to 100 scale where 0 is no effect and 100 is complete control, read-out: Ryegrass, Italian plant response rating; for pest or weed control at 125 g/ha: 125 g ai/ha, approx. 10 d; for pest or weed control at 500 g/ha: 500 g ai/ha
Procedure, shortened: as §1

[11] = system: ragweed (common ragweed, Ambrosia elatior); assay: Test A preemergence; details: Ambrosia artemisiifolia, pre-emergence, 240 h, preemergence, 0 to 100 scale where 0 is no effect and 100 is complete control, read-out: Ragweed plant response rating; for pest or weed control at 125 g/ha: 125 g ai/ha, approx. 10 d; for pest or weed control at 500 g/ha: 500 g ai/ha
Procedure, shortened: as §1

Kochia (Kochia scoparia) [12] = assay: Test A preemergence; details: Bassia scoparia, pre-emergence, 240 h, preemergence, 0 to 100 scale where 0 is no effect and 100 is complete control, read-out: Kochia plant response rating; for pest or weed control at 125 g/ha: 125 g ai/ha, approx. 10 d; for pest or weed control at 500 g/ha: 500 g ai/ha
Procedure, shortened: as §1

[13] = system: barnyardgrass (Echinochloa crus-galli); assay: Test A preemergence; details: Echinochloa crus-galli, pre-emergence, 240 h, preemergence, read-out: Barnyardgrass plant response rating; for pest or weed control at 125 g/ha: 125 g ai/ha, 0 to 100 scale where 0 is no effect and 100 is complete control, approx. 10 d; for pest or weed control at 500 g/ha: 500 g ai/ha, visual injury rating about 10 d after treatment, 0 to 100 scale (0 no effect, 100 complete control)
Procedure, shortened: as §1

[14] = system: pigweed (Amaranthus retroflexus); assay: Test A preemergence; details: Amaranthus retroflexus, pre-emergence, 240 h, preemergence, 0 to 100 scale where 0 is no effect and 100 is complete control, read-out: Pigweed plant response rating; for pest or weed control at 125 g/ha: 125 g ai/ha, approx. 10 d; for pest or weed control at 500 g/ha: 500 g ai/ha

Structure (SMILES) | plant injury at 125 g/ha (corn (Zea mays)) [%] | plant injury at 500 g/ha (corn (Zea mays)) [%] | plant injury at 125 g/ha [1] [%] | plant injury at 500 g/ha [1] [%] | pest or weed control at 125 g/ha [2] [%] | pest or weed control at 500 g/ha [2] [%] | pest or weed control at 125 g/ha [3] [%] | pest or weed control at 500 g/ha [3] [%] | pest or weed control at 125 g/ha [4] [%] | pest or weed control at 500 g/ha [4] [%] | pest or weed control at 125 g/ha [5] [%] | pest or weed control at 500 g/ha [5] [%] | pest or weed control at 125 g/ha (Kochia (Kochia scoparia) [6]) [%] | pest or weed control at 500 g/ha (Kochia (Kochia scoparia) [6]) [%] | pest or weed control at 125 g/ha [7] [%] | pest or weed control at 500 g/ha [7] [%] | pest or weed control at 125 g/ha [8] [%] | pest or weed control at 500 g/ha [8] [%] | pest or weed control at 125 g/ha [9] [%] | pest or weed control at 500 g/ha [9] [%] | other results
CN1C[C@H](c2cscn2)[C@@H](C(=O)Nc2ccccc2F)C1=O [Compound 1112] | 0 | 0 | 0 | 0 | 0 | 0 | 0 | 0 | 0 | 0 | 0 | 0 | 0 | 0 | 0 | 0 | 0 | 0 | 0 | 0 | pest or weed control at 125 g/ha [10]: 0%; pest or weed control at 500 g/ha [10]: 0%; pest or weed control at 125 g/ha [11]: 0%; pest or weed control at 500 g/ha [11]: 0%; pest or weed control at 125 g/ha (Kochia (Kochia scoparia) [12]): 0%; pest or weed control at 500 g/ha (Kochia (Kochia scoparia) [12]): 0%; pest or weed control at 125 g/ha [13]: 0%; pest or weed control at 500 g/ha [13]: 0%; pest or weed control at 125 g/ha [14]: 0%; pest or weed control at 500 g/ha [14]: 0%
Cc1cc([C@H]2CN(C)C(=O)[C@@H]2C(=O)Nc2ccccc2S(C)(=O)=O)ccc1Br [Compound 1102] | 20 | 60 | 20 | 50 | 0 | 30 | 0 | 20 | 0 | 30 | 80 | 90 | 0 | 0 | 20 | 50 | 80 | 80 | 0 | 0 | pest or weed control at 125 g/ha [10]: 30%; pest or weed control at 500 g/ha [10]: 60%; pest or weed control at 125 g/ha [11]: 0%; pest or weed control at 500 g/ha [11]: 50%; pest or weed control at 125 g/ha (Kochia (Kochia scoparia) [12]): 20%; pest or weed control at 500 g/ha (Kochia (Kochia scoparia) [12]): 70%; pest or weed control at 125 g/ha [13]: 90%; pest or weed control at 500 g/ha [13]: 90%; pest or weed control at 125 g/ha [14]: 20%; pest or weed control at 500 g/ha [14]: 50%
